# Measured values published in the supplement of paper PMC5412046.
# Assays:
# SB.mhdgc-1 [1] = experiment: viability at highest tested concentration (MAXR) relative to DMSO; higher = less cytotoxic; settings: SB.mhdgc-1 (hereditary c.1380delA CDH1 gastric cancer)
# Outline: (§1)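 A pintool delivered 23 nL of compound in DMSO to 1536-well plates holding 500 hereditary or sporadic patient-derived gastric cancer cells in 5 μL medium per well, at 11 concentrations in threefold steps. Following 48 h of exposure, cells were treated with CellTiter-Glo for 30 min at room temperature, and plates were read for luminescence on a ViewLux. The reported measure is viability normalised to DMSO, either at the top concentration or as trapezoidal area under the curve.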
# SB.msgc-1 [2] = experiment: as above; settings: SB.msgc-1 (sporadic gastric cancer)
# Outline: as §1
# SB.mhdgc-1 [3] = experiment: area under the dose-response curve of % viability (trapezoidal, 11 doses) (% viability x log10 concentration); higher = less cytotoxic; settings: SB.mhdgc-1 (hereditary c.1380delA CDH1 gastric cancer)
# Outline: as §1
# SB.msgc-1 [4] = experiment: as above; settings: SB.msgc-1 (sporadic gastric cancer)
# Outline: as §1
SMILES,viability (SB.mhdgc-1 [1]) [%],viability (SB.msgc-1 [2]) [%],area under the dose-response curve (SB.mhdgc-1 [3]),area under the dose-response curve (SB.msgc-1 [4])
COc1cc(OC)c(NC(=O)Nc2cc(C)on2)cc1Cl (top concentration 46.0829 µM),83.2,62.9,509,440
COc1cc2c(Nc3ccc(NC(=O)c4ccccc4)cc3)ncnc2cc1OCCCN1CCOCC1 (top concentration 46.0829 µM),11.7,43.1,466,519
COc1ccc(OC)c(-c2nnc3ccc(-c4ccc(OC)c(O[C@@H]5CCOC5)c4)nn23)c1 (top concentration 46.0829 µM),4.95,3.03,524,481
COC1=CC(=C2C(=O)N(COC/3=C/C(=O)N4\C=C/C=C(OCCN5CCCCC5)\C4=N3)[S+]([O-])(=O)C2=C1)C(C)C (top concentration 46.0829 µM),2.92,39.7,475,478
COc1cc2ncnc(Nc3cccc(Br)c3)c2cc1OC (top concentration 46.0829 µM),27.1,33.3,282,339
COc1ccc(-c2oc3cc(OC)ccc3c2C(=O)c2ccc(C#N)cc2)cc1 (top concentration 46.0829 µM),14.3,32.1,474,556
COc1ccc(CCC(=O)Nc2nc3ccc(Cl)cc3s2)cc1OC (top concentration 46.0829 µM),78,71.8,564,514
COc1ccc(CCN(C)CCCOc2ccc([S+](=O)([O-])c3[nH]c4ccccc4c3C(C)C)cc2)cc1OC (top concentration 46.0829 µM),66.8,109,529,575
COC1=CC=C2[C@H]3CC[C@]4(C)[C@H](CC[C@H]4[C@@H]3CCC2=C1)NCCCCCCN5C(=O)\C=C/C5=O (top concentration 46.0829 µM),83.9,91,526,579
COC1=CC=CC2=C1C(=NC(=N2)C3=CC=CS3)NN4C(=O)\C=C(C)/C4=O (top concentration 46.0829 µM),2.71,2.95,404,413
COc1nccc(-c2c(-c3ccc(F)cc3)ncn2C2CCC(O)CC2)n1 (centres undefined) (top concentration 46.0829 µM),120,101,558,538
COC1CCC(C(=O)c2ccc3nc4c(cc3c2)CCCO4)CC1 (centres undefined) (top concentration 46.0829 µM),4.89,17.9,515,533
C[C@@H](N)C1CC[C@@H](CC1)C(=O)NC2=CC=NC=C2 (some centres undefined) (top concentration 46.0829 µM),83.4,108,494,577
Cc1cc(OCCCc2c(C(=O)O)n(Cc3cccnc3)c3c(-c4c(COc5ccc(N6CCN([S+](C)(=O)[O-])CC6)cc5)nn(C)c4C)cccc23)cc(C)c1Cl (top concentration 46.0829 µM),37.7,37.9,455,505
C\C1=N\N=C(\C2=CC=C(N)C=C2)C3=CC4=C(OCO4)C=C3C1 (top concentration 46.0829 µM),141,113,561,547
Clc1cccc(-c2nnnn2Cc2cccnc2)c1Cl (top concentration 46.0829 µM),88.6,111,402,520
Clc1cccc(-n2nnnc2NCc2ccccc2Oc2ccccn2)c1Cl (top concentration 46.0829 µM),68.9,72.4,537,536
O=C(N[C@H]1CN2CCC1CC2)c1ccc(Cl)cc1 (top concentration 46.0829 µM),45.8,8.07,511,555
NC(=O)c1ccc2[nH]c(-c3ccc(Oc4ccc(Cl)cc4)cc3)nc2c1 (top concentration 46.0829 µM),36.4,56.6,360,485
NC(=O)c1ccc(-c2nc(-c3ccc4c(c3)OCO4)c(-c3ccccn3)[nH]2)cc1 (top concentration 46.0829 µM),111,83.7,585,496
Nc1n[nH]c2nnc(-c3c(-c4ccccc4)nn4ccccc34)cc12 (top concentration 46.0829 µM),28,14.2,438,445
O=C(NCCCCN1CCOCC1)c1cc2ccccc2o1 (top concentration 46.0829 µM),62,101,461,482
OC(CN1CCN(c2cccc(Cl)c2)CC1)C(c1ccccc1)c1ccccc1 (centres undefined) (top concentration 46.0829 µM),52.9,51.9,501,489
O=C(CC12CC3CC(CC(C3)C1)C2)Nc1cccc2nc(NCCNCCO)ccc12 (top concentration 46.0829 µM),2.93,40.7,358,498
c1cc(-c2sc(-c3ccncc3)c(-c3ccncc3)c2-c2ccncc2)ccn1 (top concentration 46.0829 µM),87.3,96.9,545,514
O=C1CSC(=O)N1C(CCc1ccncc1)COc1ccc(-c2cccc([N+](=O)[O-])c2)cc1 (centres undefined) (top concentration 46.0829 µM),16.8,34.1,347,454
